Assay results reported in article PMC10226132, “First-in-Class Selective Inhibitors of the Lysine Acetyltransferase KAT8” (Journal of Medicinal Chemistry, 2023).

Experiments:
[1] = tested on: HOXA9 mRNA in HCT116 cells; experiment: qRT-PCR of HOXA9 mRNA in HCT116 cells; format: cell-based, human; details: HCT116, 100 μM, 48 h
Experimental: Total RNA was isolated from cells after 48 h of treatment with compounds 19 and 34 (100 μM) using TRIzol reagent (Life Technologies) following the manufacturer’s instructions. cDNA was obtained by reverse transcription using a SensiFast cDNA Synthesis kit (Meridian Bioscience). qRT-PCR was performed using a Luna Universal qPCR Master Mix (BioLabs) and detected by Quant Studio3. The fold change of gene expression data was calculated by using the ddCT method. All samples were run in sextupled, and the results were presented as mean ± SEM. Detailed sequence of the primers used in the experiments can be found in the list below. • UCP2—Forward: 5′-[…]-3′ • Reverse 5′-[…]-3′ • HOXA9 — Forward: 5′-[…]-3′ • Reverse: 5′-[…]-3′

[2] = tested on: LC3 and p62 in HeLa cells; experiment: Western blot of autophagic markers in HeLa cells; format: cell-based, human; details: increasing doses, 48 h
Experimental: For WB experiments, the cells were lysed in RIPA buffer supplemented with 1× […] protease inhibitor cocktail (Sigma-Aldrich, S8830); 20 μg of total protein was resolved in 13.5% gels by SDS-PAGE. Then, the proteins were transferred to nitrocellulose membranes (Biorad Laboratories). Membranes were blocked for 1 h and incubated overnight with the appropriate primary antibody at 4 °C. After incubation, membranes were washed and incubated with the appropriate secondary antibody (Biorad Laboratories) for 1 h at room temperature. Following primary rabbit monoclonal antibodies H4K16Ac (1:1000, E2B8W, Rabbit mAb#13534, Cell Signalling Technology), KAT8 (1:1000, D5T3R Rabbit mAb #46862 Cell Signalling Technology), GAPDH (1:1000, sc-32233, Santa Cruz Biotechnologies), anti-LC3B (Sigma-Aldrich, L7543), anti-SQSTM1/p62 (Santa Cruz Biotechnology, sc-28,359), and anti-GAPDH (Santa Cruz Biotechnology, sc-32,233). Secondary antibodies: anti-mouse (Bio-Rad Laboratories, 1,706,515) or anti-rabbit (Bio-Rad Laboratories, 1,706,516) IgG-horseradish peroxidase-conjugated antibodies. Detection was performed by ECL Western Blotting Substrate (Biorad Laboratories). Images of blots were acquired through the ChemiDoc Imaging Systems (Biorad Laboratories). The band signals were quantified using ImageJ, and values were normalized to relative controls, depending on the analysis.

HeLa cells = experiment: MTT cell proliferation assay, HeLa; format: cell-based, human; details: 10, 25, 50, 100 μM, 72 h
Source text: Human commercially available AML U937, breast cancer MCF7, lung adenocarcinoma NCI-H460, H1299 and A-549, glioblastoma U251, B lymphocyte AHH1 cell lines were maintained in compete 10% foetal bovine serum (FBS,) RPMI 1640 (Euroclone, Milan, IT) medium. Human commercially available colon cancer HCT116 and HT29 lines and cervix adenocarcinoma HeLa cells were maintained in compete 10% FBS Dulbecco’s Modified Eagle Medium (DMEM) high glucose medium (Euroclone). L-Glutamine, FBS, and penicillin streptomycin mixture added to medium were obtained from Euroclone. All cell lines were cultured at 37 °C in a humidified atmosphere of 5% CO2:95% air and were tested for mycoplasma contamination routinely by RT-PCR.
For analysis of cell proliferation, cells were plated in sextuplicate on 96-well plates in complete media. After 24 h, cells were exposed to different drugs for 72 h. The inhibitory effect of different drugs was assessed by MTT (Sigma, St. Louis, MO, USA) colorimetric assays as previously reported.[67] Aqueous DMSO (0.5% v/v) was used as a control (untreated). The results are reported as “viability of drug-treated cells/viability of untreated cells” × 100 and represent the average ±SD of three independent experiments. IC50 values were using fitted by nonlinear regression using GraphPad Prism 8.0.

KDAC2, 3, 6, and 8 = tested on: KDAC2, 3, 6, and 8; set-up: method as in PMID 26718586; details: cited from earlier work

| SMILES | HOXA9 mRNA levels [1] | LC3-II/-I ratio and p62 autophagic markers (WB), HeLa [2] | antiproliferative activity in HeLa (HeLa cells) | IC50 (KDAC2, 3, 6, and 8) |
| --- | --- | --- | --- | --- |
| O=C(O)c1ccc(N2N=C(c3ccccc3)/C(=C/c3ccc[nH]3)C2=O)cc1 [Compound 34, (Z)-4-(4-((1H-Pyrrol-2-yl)methylene)-5-oxo-3-phenyl-4,5-dihydro-1H-pyrazol-1-yl)benzoic Acid] | downregulating also HOXA9 | A similar response | a certain degree of antiproliferative activity |  |
| CC1=NN(c2ccc(C(=O)O)cc2)C(=O)/C1=C\c1ccc[nH]1 [Compound 19, (Z)-4-(4-((1H-Pyrrol-2-yl)methylene)-3-methyl-5-oxo-4,5-dihydro-1H-pyrazol-1-yl)benzoic Acid] |  |  | a certain degree of antiproliferative activity |  |
| CC1=NN(c2ccc(C(=O)O)cc2)C(=O)/C1=C\c1ccc(-c2cc(C)c(C)cc2[N+](=O)[O-])o1 [VII (C646), reference compound] |  |  |  | 7 to 25 µM |
